Source: publication PMC5515859, “Metabolism of F18, a Derivative of Calanolide A, in Human Liver Microsomes and Cytosol” (Frontiers in Pharmacology, 2017)
Where two headings read alike, the source gives them in different places.

How the values were obtained:
[1] = system: CYP2D6; conditions: cited from earlier work
[2] = biological target: T1, recombinant CYP3A4 (Homo sapiens, UniProt P08684); experiment: Metabolism of F18 by cDNA-expressed CYP3A4; assay type: in vitro ADME; conditions: F18 10 μM, 50 pmol/mL enzyme, 1 h; among 14 CYP isoforms
T1 construct: purchased BD Gentest (Woburn, MA, USA)
T1 sequence (P08684 whole entry, canonical isoform): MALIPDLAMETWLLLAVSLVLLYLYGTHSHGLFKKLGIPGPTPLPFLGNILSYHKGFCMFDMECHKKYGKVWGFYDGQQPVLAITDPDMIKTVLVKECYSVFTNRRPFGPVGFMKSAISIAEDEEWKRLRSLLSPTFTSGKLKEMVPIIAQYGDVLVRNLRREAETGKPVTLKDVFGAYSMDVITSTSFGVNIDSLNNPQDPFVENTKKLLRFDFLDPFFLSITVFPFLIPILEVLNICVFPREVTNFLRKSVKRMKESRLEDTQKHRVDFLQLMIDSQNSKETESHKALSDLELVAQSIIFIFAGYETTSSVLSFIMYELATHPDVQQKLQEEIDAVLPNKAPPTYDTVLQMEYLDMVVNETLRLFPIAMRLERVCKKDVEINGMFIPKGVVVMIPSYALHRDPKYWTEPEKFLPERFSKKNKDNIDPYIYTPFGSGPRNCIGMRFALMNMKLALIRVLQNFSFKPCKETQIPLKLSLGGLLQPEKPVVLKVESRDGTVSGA
Method: To further verify the roles of CYPs and FMOs in the metabolism of F18 in humans, F18 (10 μM) was incubated individually with 14 cDNA-expressed human CYP isozymes (50-pmol/mL CYP1A1, CYP1A2, CYP2A6, CYP2B6, CYP2C8, CYP2C9, CYP2C19, CYP2D6, CYP2E1, CYP2J2, CYP3A4, CYP4F2, CYP4F3, and CYP4A11) and three cDNA-expressed FMO enzymes (50-pmol/mL FMO1, FMO3, and FMO5). The incubation conditions were similar to those used for HLMs (described above), with the exception of the incubating time […]. Samples incubated without NADPH were used as the negative control.

[3] = system: Y181C single mutation of HIV-1; conditions: ref Xue et al., 2010; cited from earlier work
[4] = system: CYP2C9; design: method as in unpublished data; conditions: previous study; ref unpublished data; cited from earlier work
[5] = system: CYP3A4; design: method as in unpublished data; conditions: previous study; ref unpublished data; cited from earlier work
[6] = system: CYPs and FMOs in HLMs; experiment: Microsomal incubations of F18 with chemical inhibitors of CYPs or thermal inactivation of FMOs
Method: (§1) The contributions of CYPs and FMOs to the metabolism of F18 were investigated by chemical inhibition and thermal inactivation, respectively. […] Briefly, F18 (10 μM) was incubated with HLMs (0.5 mg protein/mL) and an NADPH-generating system in the absence and presence of CYP inhibitors at 37°C for 30 min, and the reaction was terminated with two volumes of ice-cold acetonitrile. […] In brief, HLMs (0.5 mg protein/mL) were preheated at 50°C for 5 min and then immersed in an ice-cold bath. After the addition of F18 (10 μM) and equilibration for 3 min at 37°C, the reaction was started by the addition of the NADPH-generating system. After a 30-min incubation, the reactions were terminated as described above. […] The formation of the major metabolites M1, M2-9, M3-1, M3-2, M5-2, M5-3, M5-4, and M5-5 was analyzed by LC-MS/MS.
(§2) The amounts of F18, M1, M2-9, M3-1, M3-2, M5-2, M5-3, M5-4, and M5-5 in the incubations were simultaneously quantified with the LC-MS/MS system. […] The sheath gas, auxiliary gas, spray voltage and tube lens parameters were the same as those for the metabolic profiling studies.

[7] = Pharmacokinetics in rats after oral administration of F18; assay type: in vivo, Sprague-Dawley rats; conditions: rat blood, oral F18 50 mg/kg, mean ± SD, n = 5
Method: To investigate the pharmacokinetic characteristics of F18 and its major metabolites, five rats were intragastrically administered F18 at a dose of 50 mg/kg. Blood samples were collected in heparinized ice-bath tubes from the suborbital veniplex at 0, 0.25, 0.5, 1, 2, 4, 6, 8, 12, 16, and 24 h postdose. The blood concentrations of F18 and its major metabolites were determined by LC-MS/MS and their pharmacokinetic parameters were calculated through non-compartmental analysis using WinNonlin Version 6.1 (Pharsight, Mountain View, CA, USA).
For the blood samples, F18, M1, M3-1, and M3-2 were simultaneously quantified using the following elution gradient: Solvent B was maintained at 15% for 2 min, increased to 85% in 1 min, maintained at 85% for 5 min, decreased to 15% in 0.5 min and maintained at 15% for 4.5 min. Detection was also performed using a Finnigan TSQ Quantum MS instrument with an electrospray ionization probe operated in the positive mode.
Calibration curves for F18 and its metabolites were fitted via linearly weighted (1/x^2) least-squares regression. The correlation coefficient values of F18 and its metabolites in the incubations were >0.99 for the range 10–5,000 nM; the LOQ was 10 nM with a signal-to-noise ratio >10:1; the accuracies were 90–113% and the precisions (RSD) were <10.5%. In the blood samples, the correlation coefficient values for F18, M1, M3-1, and M3-2 were >0.99 for the range 5–2,000 nM; the LOQ was 5 nM with the signal-to-noise ratio >10:1; the accuracies were 91–112% and the precisions (RSD) were <9.6%. In addition, no interference was found in the retention time of each analyte in both the incubated samples and the blood samples.

[8] = system: HIV-1; conditions: ref Xue et al., 2010, cited from earlier work
[9] = system: VSV-G/HIV-1 viruses; experiment: microbe, parasite or virus in culture; assay type: cell-based; conditions: Human immunodeficiency virus 1, HEK-293T, 48 h, read-out: IC50, inhibition of HIV-1 replication
[10] = system: CYP2C19; design: method as in unpublished data; conditions: previous study; ref unpublished data; cited from earlier work
[11] = system: CYP1A2; design: method as in unpublished data; conditions: previous study; ref unpublished data; cited from earlier work
[12] = system: CYP3A4/5; conditions: cited from earlier work
[13] = system: CYP1A2; conditions: cited from earlier work
[14] = system: CYP2E1; conditions: cited from earlier work
[15] = design: method as in Creagh et al., 2001; Eiznhamer et al., 2002; conditions: ref Creagh et al., 2001; Eiznhamer et al., 2002; cited from earlier work
[16] = system: CYP3A4; experiment: Microsomal incubations of F18 with chemical inhibitors of CYPs or thermal inactivation of FMOs; conditions: human, human liver microsomes
Method: as §1, §2

[17] = system: CYP2C19; conditions: cited from earlier work
[18] = system: carbonyl reductases in HLM; experiment: Inhibition of carbonyl reduction of F18 (formation of M3-1 and M3-2) by chemical inhibitors in HLM; assay type: in vitro ADME, human; conditions: NADPH, F18 10 μM, 30 min
Method: F18 (10 μM) was incubated with HLMs (0.5 mg/mL) and the NADPH-generating system for 30 min or with HLcy and a cofactor (NADPH or NADH) for 10 min in the presence of chemical inhibitors under the above-described conditions. Control incubations using the vehicles but not the chemical inhibitors were also performed. The formation of M3-1 and M3-2 was quantified by LC-MS/MS.
as §2

[19] = HLMs preheated at 50°C for 5 min, F18 10 μM
[20] = high concentration: 18β-glycyrrhetinic acid 0.5 μM, 2-CEE 5 mM
[21] = low concentration: 18β-glycyrrhetinic acid 0.1 μM, 2-CEE 1 mM

In the case of `CCCc1cc(=O)oc2c3c(c4c(c12)OC(C)(C)C=C4)OC(CCl)CC3=O` (centres unmarked) [Metabolite F18, 10-Chloromethyl-11-demethyl-12-oxo-calanolide A], the “Metabolic activity of recombinant CYP3A4 for the formation of M1, M2-9, M5-2, M5-3, M5-4, and M5-5” value [2] is given as “highest metabolic activity”, the “Potency against Y181C mutant HIV-1 (in words)” value [3] is given as “extremely high potency” and the “Effect on CYP2C9” value [4] is given as “potent inhibitory effects”. The “Effect on CYP3A4” value [5] was “activation-inducing effect”, the “Formation of M3-1 after thermal inactivation of FMOs” value [6, 19] was “significantly inhibited” and the “Reduction in M1 formation by thermal inactivation of FMOs” value [6, 19] was 64%. It also gave a Cmax ([7]; Sprague-Dawley) of 443 ± 107 nM, a Tmax ([7]; Sprague-Dawley) of 3.3 ± 2.2 h and a half-life ([7]; Sprague-Dawley) of 5.3 ± 2.8 h. The MRT last ([7]; Sprague-Dawley, read-out: MRT0−t) was 7.8 ± 1 h, the MRT inf ([7]; Sprague-Dawley, read-out: MRT0−∞) was 10 ± 2.4 h and the “AUC0−∞” value ([7]; 50 mg/kg) was 5,166 h^*nM. For the same compound, the “therapeutic (index)” value [8] was 1417, the EC50 ([8]; read-out: half-maximal effective concentration (EC50)) was 7.4 nM and the IC50 [9] was 190 nM. For the same compound, the “Effect on CYP2C19” value [10] was “potent inhibitory effects” and the “Effect on CYP1A2” value [11] was “potent inhibitory effects”.

For `Cc1ncc2n1-c1ccc(Cl)cc1C(c1ccccc1F)=NC2` [midazolam], the “Metabolism of probe substrate after thermal inactivation of HLMs” value [6] is given as “unchanged” and the Km [12] is given as 1 to 14 µM.

For `C=CCSSCC=C` [diallyldisulfide], the Ki [14] is given as 150000 nM.

In the case of `Cc1ncsc1CCCl` [Clomethiazole], the Ki [14] is given as 12000 nM.

For `CCOc1ccc(NC(C)=O)cc1` [Phenacetin], the Km ([13]; read-out: substrate Km, CYP1A2, metabolite Acetaminophen, ref FDA Drug Development and Drug Interactions) is listed as 1.7 to 152 µM.

For `CCCc1cc(=O)oc2c3c(c4c(c12)OC(C)(C)C=C4)O[C@H](C)[C@@H](C)[C@@H]3O` [calanolide A, Calanolide A], the “Tolerability in Phase I studies” value [15] is given as “well tolerated”.

In the case of `CC(=O)N1CCN(c2ccc(OCC3COC(Cn4ccnc4)(c4ccc(Cl)cc4Cl)O3)cc2)CC1` (centres unmarked) [ketoconazole], the inhibition at 30 min, 1 μM [16] is given as > 80%, the inhibition at 30 min, 1 μM ([16]; probe F18 (10 μM), formation of metabolite M1) is given as 20 to 30% and the Ki [12] is given as 3.7 to 180 nM.

In the case of `COc1ccc2c(c1)[C@]13CCCC[C@@H]1[C@H](C2)N(C)CC3` [dextromethorphan], the Km [1] is given as 0.44 to 8.5 µM.

For `C=C(C)[C@@H]1CCC2=CC(=O)C[C@@H](C)[C@]2(C)C1` [nootkatone], the Ki [17] is listed as 500 nM.

In the case of `CC1(C)[C@@H](O)CC[C@]2(C)[C@H]3C(=O)C=C4[C@@H]5C[C@@](C)(C(=O)O)CC[C@]5(C)CC[C@@]4(C)[C@]3(C)CC[C@@H]12` [18β-Glycyrrhetinic, 18β-glycyrrhetinic acid], the “Percentage of inhibition of the formation of M3-1, H” value [18, 20] is reported as 13.7%, the “Percentage of inhibition of the formation of M3-2, H” value [18, 20] is reported as 67.5% and the “Percentage of inhibition of the formation of M3-1, L” value [18, 21] is reported as 1.2%. The “Percentage of inhibition of the formation of M3-2, L” value [18, 21] was 51.4%.
